Data reported in US10487045B2, “Adamantane derivative and use thereof” (TOHOKU UNIVERSITY, priority 2016, dated 2019).

biological target: T1, Kir6.2 channel (Mus musculus, UniProt Q61743); assay: CaMKII activation in N2A cells overexpressing Kir6.2 channel (immunoblotting, anti-phosphorylated CaMKII antibody); format: cell-based; conditions: 10 nM, one hour, Kir6.2 channel overexpressing N2A cells; control without compound = 100%
T1 construct: expressed in transfected cells; host or cells: Neuro2A (N2A) cells, transient transfection with pcDNA3.1-Kir6.2 (gift of Dr. Toru Ishizuka, Tohoku University)
T1 sequence (Q61743 1-390): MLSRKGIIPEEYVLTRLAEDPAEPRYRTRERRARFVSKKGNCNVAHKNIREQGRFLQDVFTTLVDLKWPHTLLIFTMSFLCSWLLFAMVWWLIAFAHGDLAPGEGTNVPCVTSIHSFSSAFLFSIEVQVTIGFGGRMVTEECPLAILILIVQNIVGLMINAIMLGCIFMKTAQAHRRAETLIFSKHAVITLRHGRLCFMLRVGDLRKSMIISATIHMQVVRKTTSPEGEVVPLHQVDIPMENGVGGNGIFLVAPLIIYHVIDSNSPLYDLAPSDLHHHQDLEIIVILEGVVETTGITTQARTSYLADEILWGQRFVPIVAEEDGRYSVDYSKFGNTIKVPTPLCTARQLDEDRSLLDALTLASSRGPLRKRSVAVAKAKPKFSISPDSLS
Protocol: A plasmid vector having cDNA of Kir6.2 channel inserted therein: pcDNA3.1-Kir6.2, was obtained from Dr. Toru Ishizuka (Graduate School of Life Sciences, Tohoku University). The plasmid vector, pcDNA3.1-Kir6.2, was conditioned in accordance with the manual attached to GenElute HP Plasmid Maxiprep Kit (manufactured by Sigma-Aldrich). A culture solution (composition: DMEM culture solution 450 mL containing 50 ml of bovine serum and 100 units of penicillin/streptomycin) of Neuro2A cells (N2A cells, the National Instituted of Biomedical Innovation) cultured in DMEM culture solution (Gibco) was exchanged with Opti-Mem (Gibco)(containing Lipofectamine R2000 (1 μg/1 ml)) containing pcDNA3.1-Kir6.2 (1 μg/μl) conditioned above, and cultured for 5 hours to obtain N2A cells overexpressing Kir6.2 channel. Exchange with the DMEM culture solution was again performed and culture was carried out for two days. Thereafter, memantine (manufactured by Sigma-Aldrich) and the compound of the present invention (n=4 per group) were added in the culture solutions (DMEM, Gibco) so as to obtain a concentration of 10 nM based on the culture solution, and the culture solutions were allowed to stand still for one hour. Thereafter, Kir6.2 channel overexpressing N2A cells were collected and an SDS sample buffer was added to the N2A cells to prepare a suspension. The suspension was subjected to immunoblotting by use of an anti-phosphorylated CaMKII antibody (Fukunaga K et al., J. Biol. Chem. 1992, 267, 22527-22533) as a primary antibody and an anti-rabbit IgG antibody (manufactured by SouthernBiotech) as a secondary antibody (other conditions except the aforementioned antibodies were the same as those employed in ordinary immunoblotting), to investigate activation of CaMKII. As a result, in TP-009, TP-010, TP-011, TP-012, TP-014, TP-015, TP-048, TP-049, TP-050, TP-051, TP-052, TP-053, bands showing a reaction with the antibody against phosphorylated CaMKII were obtained. It was confirmed that activation of CaMKII is enhanced. In FIG. 1, the result of the case (control: c) where a test compound was not added is regarded as 100%. CaMKII activation of the cases containing memantine, TP-009, TP-010, TP-011, TP-012, TP-014, TP-015, TP-048, TP-049, TP-050, TP-051, TP-052, TP-053 (corresponding to M, 9, 10, 11, […], 15, 48, 49, 50, 51, 52 and 53, respectively) were shown in FIG. 1.

Compound | activation of CaMKII (phosphorylated CaMKII bands)
CC(=O)O[C@@H](c1ccccc1)[C@@H]1[C@@H]2C[C@H]3C[C@@](N=[N+]=[N-])(C2)C[C@]1(O)C3 [TP-009, (R)-((1R,2S,3R,5R,7S)-5-azido-1-hydroxyadamantan-2-yl)(phenyl)methyl acetate] | enhanced
CCOC(=O)[C@@H](NC(C)=O)[C@@H]1[C@@H]2C[C@H]3C[C@@](Cl)(C2)C[C@]1(O)C3 [TP-010, ethyl (S)-2-acetamido-2-((1R,2S,3R,5R,7R)-5-chloro-1-hydroxyadamantan-2-yl)acetate] | enhanced
CCOC(=O)[C@H](NC(C)=O)[C@@H]1[C@@H]2C[C@H]3C[C@@](Cl)(C2)C[C@]1(O)C3 [TP-011, ethyl (R)-2-acetamido-2-((1R,2S,3R,5R,7R)-5-chloro-1-hydroxyadamantan-2-yl)acetate] | enhanced
COC(=O)[C@@H](NC(=O)C(F)(F)F)[C@@H]1[C@@H]2C[C@H]3C[C@@](Cl)(C2)C[C@]1(OC(=O)C(F)(F)F)C3 [TP-012, (1R,2S,3R,5R,7R)-5-chloro-2-((S)-2-methoxy-2-oxo-1-(2,2,2-trifluoroacetamido)ethyl)adamantan-1-yl 2,2,2-trifluoroacetate] | enhanced
N[C@H](C(=O)O)[C@@H]1[C@@H]2C[C@H]3C[C@@](O)(C2)C[C@]1(O)C3 [TP-015, (S)-2-amino-2-((1R,2S,3R,5R,7S)-1,5-dihydroxyadamantan-2-yl)acetic acid] | enhanced
O=C(N[C@@H](c1ccccc1)[C@H]1[C@H]2C[C@@H]3C[C@](Cl)(C2)C[C@@]1(O)C3)C(F)(F)F [TP-048, N—((R)-((1S,2R,3S,5S,7S)-5-chloro-1-hydroxyadamantan-2-yl)(phenyl)methyl)-2,2,2-trifluoroacetamide] | enhanced
O=C(N[C@@H](c1ccccc1)[C@H]1[C@@H]2C[C@H]3C[C@@H](C2)C[C@]1(OC(=O)C(F)(F)F)C3)C(F)(F)F [TP-049, (1S,2R,3S,5R,7S)-2-((R)-phenyl(2,2,2-trifluoroacetamido)methyl)adamantan-1-yl 2,2,2-trifluoroacetate] | enhanced
COCCO[C@@]12C[C@H]3C[C@@H](C1)[C@H]([C@@H](NC(=O)C(F)(F)F)c1ccccc1)[C@](OC(=O)C(F)(F)F)(C3)C2 [TP-050, (1S,2R,3S,5S,7R)-5-(2-methoxyethoxy)-2-((R)-phenyl(2,2,2-trifluoroacetamido)methyl)adamantan-1-yl 2,2,2-trifluoroacetate] | enhanced
O=C(N[C@@H](c1cccnc1)[C@H]1[C@H]2C[C@@H]3C[C@](Cl)(C2)C[C@@]1(O)C3)C(F)(F)F [TP-051, N—((R)-((1S,2R,3S,5S,7S)-5-chloro-1-hydroxyadamantan-2-yl)(pyridin-3-yl)methyl)-2,2,2-trifluoroacetamide] | enhanced
O=C(N[C@@H](c1ccccc1)[C@H]1[C@@H]2C[C@H]3C[C@@H](C2)C[C@]1(O)C3)C(F)(F)F [TP-052, 2,2,2-trifluoro-N—((R)—((S,2R,3S,5R,7S)-1-hydroxyadamantan-2-yl)(phenyl)methyl) acetamide] | enhanced
CO[C@@]12C[C@H]3C[C@@H](C1)[C@H]([C@@H](NC(=O)C(F)(F)F)c1ccccc1)[C@](OC(=O)C(F)(F)F)(C3)C2 [TP-053, (1S,2R,3S,5S,7R)-5-methoxy-2-((R)-phenyl(2,2,2-trifluoroacetamido)methyl)adamantan-1-yl 2,2,2-trifluoroacetate] | enhanced
